Peptide text beside a SMILES is read from it.
How the values were obtained:
[1] = system: Ad-TSHR-immunized mice; assay: retro-orbital fibrosis by digitized image analysis of orbital sections; type: in vivo, BALB/c mice; conditions: 1 mg/kg IV 4-weekly, Masson's stain
Procedure: FIG. 6 summarizes the results of histological investigation of orbital sections. […] The sections were taken at defined distances from the mouse bregma. Interstitial connective tissue was then stained in green (Masson's trichrome stain). For clarity, both HE stained sections (left panels) and Masson's stained sections (right panels) are shown next to each other. FIG. 6B: the effects of peptide therapy on severity of retro-orbital fibrosis were evaluated in histological sections of all available animals. The measurements were carried out in Ad-TSHR-immunized mice treated by either 4-weekly injections with vehicle (0.9% NaCl, “Graves' no therapy”, n=9 mice), or administrations of 1 mg/kg body weight of peptide 836 (11 mice) or TSHR-Fc (11 mice). […] The mean total fibrosis volumes of each right and left orbita, as assessed by digitized image analysis of all sections, and consecutive integrations, are shown with SEM. […]
After euthanasia, dissection of the thyroid glands was performed under a stereomicroscope, as described before (22). […] Thyroid volumes (mm^3) were calculated from the sum of the areas of each section over the whole cutting region. Myocardial volumes (mm^3) were calculated in a similar way as described for thyroid glands from the sum of the areas of each section over whole cutting region (5 to 6 slides, depending on respective size of the hearts). […]

[2] = system: immunologically naïve mice; conditions: mouse, in vivo, iv, 1 mg/kg
Procedure: BALB/c mice were adapted for at least one week to start experiments at the age of 12 weeks. Animals were kept as described before. […] Peptides (either 1 mg/kg body weight or NaCl vehicle control) were given by IV injection into a tail vein of these naïve mice (n=5 per group), and then continued at 4-weekly intervals for 6 months, as described before for the therapeutic study in immunized mice. Serum samples were taken at identical intervals.
1) “3rd generation assay”: Antibodies against TSHR were detected by a commercially available 3rd generation enzyme immunoassay provided by RSR Limited, Avenue Park, Pentwyn, Cardiff, U.K., in which the of the human Graves patient-derived M22 monoclonal antibody and serum antibodies compete for binding sites on immobilized TSHR. […] The assay was performed using 30 μl 1:10 (PBS) diluted serum in at least double determination according to the manufacturer's instructions.

[3] = system: Ad-TSHR-immunized mice; assay: clinical signs of allergic reaction during therapy of immunized mice; type: in vivo, BALB/c mice; conditions: 1 mg/kg IV, had to be treated with clemastin
Procedure: The study protocol used three 3-weekly immunizations (“initiation”) and followed by a “maintenance” phase with further regular 4-weekly boosts until the 9th immunisation, as described before (22). Mice were randomly assigned to therapeutic groups. Therapy (either 1 mg/kg body weight peptides or 0.9% NaCl vehicle control) was given 1 week after the 4th immunization by IV injection into a tail vein, and then continued at 4-weekly intervals, as described before for the treatment of anti-β1AR (16). The fusion protein TSHR-Fc was given IV at identical times at doses of 1 mg/kg, but had to be applied together with the histamine receptor blocker clemastin (Tavegil®) at a dose of 0.02 mg per mouse (25 g body weight) to avoid clinical symptoms of allergic reaction, which had been observed in initial pilot studies of TSHR-Fc administration in mice.

[4] = system: monoclonal M22 antibody binding to TSHR; assay: direct binding/scavenging of anti-TSHR antibody M22 (modified 3rd generation titer assay); parameters: species or system human; conditions: 100 μg/mL test substance, M22 final concentration 10 ng/mL
Procedure: In FIG. 8 the effects of peptides on anti-TSHR antibody titers (A) and on cAMP stimulation in TSHR-expressing test cells (B) were studied ex vivo (anti-TSHR-antibody positive serum samples). Each measurement was carried out in 4 samples. Results are shown as % of untreated controls with standard errors of the means (SEM). Significance was tested by analysis of variance (ANOVA) between groups, followed by LSD post-hoc testing. **p<0.001, compared to controls
In order to investigate the direct binding of peptides to anti-TSHR antibodies, Roche's Cobas® assay (04388790) for ECLIA was used with minor modifications: 30 μl of the diluted monoclonal M22-Bio antibody was mixed with 30 μl diluted peptide or TSHR-Fc (final concentration of 100 μg/ml in PBS) and added to the TSHR-pre-coated microtiter plate. After an incubation step for 2 h at room temperature the protocol was continued according to the manufacturer's instructions.

| Compound | retro-orbital fibrosis [1] | anti-TSHR antibody titers in naive mice [2] | generation of anti-TSHR antibodies [2] | clinical signs of allergic reactions [3] | anti-TSHR antibody titers (M22 binding to its substrate) [4] |
| --- | --- | --- | --- | --- | --- |
| CC[C@H](C)[C@@H]1NC(=O)[C@H](C(C)C)NC(=O)[C@H]([C@@H](C)O)NC(=O)[C@H](CC(C)C)NC(=O)[C@H](Cc2ccc(O)cc2)NC(=O)[C@H](CCCCN)NC(=O)[C@H](CC(N)=O)NC(=O)[C@H](CCCCN)NC(=O)[C@H](CC(N)=O)NC(=O)[C@H](CC(C)C)NC(=O)[C@H](Cc2ccc(O)cc2)NC(=O)[C@H](C(C)C)NC(=O)[C@H](C)NC(=O)[C@H](CC(=O)O)NC(=O)[C@H](CC(C)C)NC(=O)[C@H](CCCCN)NC(=O)[C@H]([C@@H](C)O)NC(=O)CNC(=O)[C@H](CC(N)=O)NC(=O)[C@H](Cc2ccccc2)NC(=O)[C@H](C)NC(=O)[C@H](Cc2ccc(O)cc2)NC(=O)CNC(=O)[C@H](CC(=O)O)NC1=O [peptide 836] (cyclo(GYAFNGTKLDAVYLNKNKYLTVID)) | completely reversed | below background | not observed in any of the 6 animals | – | – |
| TSHR-Fc: fusion protein: first 289 amino acids of human TSH receptor (A-subunit), GGR linker and Fc portion of human IgG2 | – | – | – | clinical signs of allergic reactions | significantly reduced anti-TSHR antibody titers |

Source: US11459375B2, “Cyclic peptides for the treatment of Graves' disease” (advanceCOR GmbH, priority 2017, dated 2022)
